Test results published in PubChem BioAssay AID1963872 (Molecular Pharmacology Branch, DTP, NCI, 2024).

System: KRAS patient-derived spheroids with HUVEC/MSC, viability
Experiment: Anticancer human tumor 519858-162-T-J1-PDC patient-derived colon adenocarcinoma cell line growth inhibition [KRAS2]
Conditions: for IC50: curve of first compound; for viability, T/C: stronger effect = lower value
Summary of the method: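 KRAS-mutant tumor cells were grown as spheroids with HUVEC endothelial cells and human MSCs as stroma. Targeted agents were tested alone and with KRAS pathway inhibitors. Doses started at or near clinical Cmax, or 10 microM, descending half-log.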

[1] = second compound 0.0316 µM, first compound 0.000316 µM
[2] = second compound 0.0316 µM, first compound 0.001 µM
[3] = second compound 0.0316 µM, first compound 0.00316 µM
[4] = second compound 0.0316 µM, first compound 0.01 µM
[5] = second compound 0.0316 µM, first compound 0.0316 µM
[6] = second compound 0.0316 µM, first compound 0.1 µM
[7] = second compound 0.1 µM, first compound 0.000316 µM
[8] = second compound 0.1 µM, first compound 0.001 µM
[9] = second compound 0.1 µM, first compound 0.00316 µM
[10] = second compound 0.1 µM, first compound 0.01 µM
[11] = second compound 0.1 µM, first compound 0.0316 µM
[12] = second compound 0.1 µM, first compound 0.1 µM
[13] = second compound 0.316 µM, first compound 0.000316 µM
[14] = second compound 0.316 µM, first compound 0.001 µM
[15] = second compound 0.316 µM, first compound 0.00316 µM
[16] = second compound 0.316 µM, first compound 0.01 µM
[17] = second compound 0.316 µM, first compound 0.0316 µM
[18] = second compound 0.316 µM, first compound 0.1 µM
[19] = second compound 1 µM, first compound 0.000316 µM
[20] = second compound 1 µM, first compound 0.001 µM
[21] = second compound 1 µM, first compound 0.00316 µM
[22] = second compound 1 µM, first compound 0.01 µM
[23] = second compound 1 µM, first compound 0.0316 µM
[24] = second compound 1 µM, first compound 0.1 µM
[25] = second compound 3.16 µM, first compound 0.000316 µM
[26] = second compound 3.16 µM, first compound 0.001 µM
[27] = second compound 3.16 µM, first compound 0.00316 µM
[28] = second compound 3.16 µM, first compound 0.01 µM
[29] = second compound 3.16 µM, first compound 0.0316 µM
[30] = second compound 3.16 µM, first compound 0.1 µM
[31] = second compound 0.0316 µM, first compound 0.316 µM
[32] = second compound 0.0316 µM, first compound 1 µM
[33] = second compound 0.0316 µM, first compound 3.16 µM
[34] = second compound 0.0316 µM, first compound 10 µM
[35] = second compound 0.1 µM, first compound 0.316 µM
[36] = second compound 0.1 µM, first compound 1 µM
[37] = second compound 0.1 µM, first compound 3.16 µM
[38] = second compound 0.1 µM, first compound 10 µM
[39] = second compound 0.316 µM, first compound 0.316 µM
[40] = second compound 0.316 µM, first compound 1 µM
[41] = second compound 0.316 µM, first compound 3.16 µM
[42] = second compound 0.316 µM, first compound 10 µM
[43] = second compound 1 µM, first compound 0.316 µM
[44] = second compound 1 µM, first compound 1 µM
[45] = second compound 1 µM, first compound 3.16 µM
[46] = second compound 1 µM, first compound 10 µM
[47] = second compound 3.16 µM, first compound 0.316 µM
[48] = second compound 3.16 µM, first compound 1 µM
[49] = second compound 3.16 µM, first compound 3.16 µM
[50] = second compound 3.16 µM, first compound 10 µM
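Also: compound exposure lasted seven days before readout.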
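For viability, T/C in this document: 100% = DMSO vehicle control viability.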

Row | Compound | IC50 (second compound 0.0316 µM) [µM] | IC50 (second compound 0.1 µM) [µM] | IC50 (second compound 0.316 µM) [µM] | IC50 (second compound 1 µM) [µM] | IC50 (second compound 3.16 µM) [µM] | viability, T/C [1] [%] | viability, T/C [2] [%] | viability, T/C [3] [%] | viability, T/C [4] [%] | viability, T/C [5] [%] | viability, T/C [6] [%] | viability, T/C [7] [%] | viability, T/C [11] [%] | viability, T/C [12] [%] | viability, T/C [17] [%] | viability, T/C [18] [%] | viability, T/C [23] [%] | viability, T/C [24] [%] | viability, T/C [29] [%] | viability, T/C [30] [%] | also measured
1 | CC(C)n1nc(-c2ccc3oc(N)nc3c2)c2c(N)ncnc21 + C=CC(=O)N1CCN(c2nc(OCC3CCCN3C)nc3c2CCN(c2cccc4cccc(C)c24)C3)CC1CC#N | > 0.1 | 0.035 | 0.0798 | > 0.1 | 0.0557 | 97.9 | 82 | 81.8 | 63.5 | 61.8 | 57.7 | 103 | 50.9 | 39.2 | 64.4 | 46.7 | 84.6 | 66.2 | 63 | 38.6 | viability, T/C [8]: 104%; viability, T/C [9]: 74.3%; viability, T/C [10]: 70.2%; viability, T/C [13]: 74.6%; viability, T/C [14]: 83.8%; viability, T/C [15]: 78.3%; viability, T/C [16]: 66.8%; viability, T/C [19]: 81%; viability, T/C [20]: 82.7%; viability, T/C [21]: 78.7%; viability, T/C [22]: 68.2%; viability, T/C [25]: 80.6%; viability, T/C [26]: 76.4%; viability, T/C [27]: 76%; viability, T/C [28]: 67%
2 | CC1(C)CCC(CN2CCN(c3ccc(C(=O)NS(=O)(=O)c4ccc(NCC5CCOCC5)c([N+](=O)[O-])c4)c(Oc4cnc5[nH]ccc5c4)c3)CC2)=C(c2ccc(Cl)cc2)C1 + C=CC(=O)N1CCN(c2nc(OCC3CCCN3C)nc3c2CCN(c2cccc4cccc(C)c24)C3)CC1CC#N | 8.77 | > 10 | > 10 | 3.45 | 1.3 | – | – | – | – | 86.4 | 92.8 | – | 94.8 | 88.8 | 102 | 87 | 76.8 | 75.6 | 83 | 67 | viability, T/C [31]: 76.3%; viability, T/C [32]: 88.1%; viability, T/C [33]: 87.9%; viability, T/C [34]: 45.3%; viability, T/C [35]: 97%; viability, T/C [36]: 97.3%; viability, T/C [37]: 93.9%; viability, T/C [38]: 72.5%; viability, T/C [39]: 69.6%; viability, T/C [40]: 106%; viability, T/C [41]: 68.7%; viability, T/C [42]: 57.9%; viability, T/C [43]: 87.2%; viability, T/C [44]: 69%; viability, T/C [45]: 53.4%; viability, T/C [46]: 17.6%; viability, T/C [47]: 70.6%; viability, T/C [48]: 64.7%; viability, T/C [49]: 0.7%; viability, T/C [50]: 0.42%
3 | COc1cc2nccc(Oc3ccc(NC(=O)C4(C(=O)Nc5ccc(F)cc5)CC4)cc3)c2cc1OC + C=CC(=O)N1CCN(c2nc(OCC3CCCN3C)nc3c2CCN(c2cccc4cccc(C)c24)C3)CC1CC#N | > 10 | > 10 | > 10 | > 10 | 4.78 | – | – | – | – | 73.6 | 99.7 | – | 85.2 | 98.3 | 109 | 82.5 | 71.5 | 74.5 | 77.6 | 72.2 | viability, T/C [31]: 91.6%; viability, T/C [32]: 78.1%; viability, T/C [33]: 103%; viability, T/C [34]: 122%; viability, T/C [35]: 80.3%; viability, T/C [36]: 77.9%; viability, T/C [37]: 77.2%; viability, T/C [38]: 84.5%; viability, T/C [39]: 109%; viability, T/C [40]: 99.1%; viability, T/C [41]: 98.5%; viability, T/C [42]: 132%; viability, T/C [43]: 77.6%; viability, T/C [44]: 76.8%; viability, T/C [45]: 104%; viability, T/C [46]: 145%; viability, T/C [47]: 69.5%; viability, T/C [48]: 74.8%; viability, T/C [49]: 93.5%; viability, T/C [50]: 0.86%
4 | Cn1ncnc1[C@H]1c2n[nH]c(=O)c3cc(F)cc(c23)N[C@@H]1c1ccc(F)cc1 + C=CC(=O)N1CCN(c2nc(OCC3CCCN3C)nc3c2CCN(c2cccc4cccc(C)c24)C3)CC1CC#N | > 0.1 | > 0.1 | > 0.1 | > 0.1 | > 0.1 | 84.3 | 88.4 | 75.1 | 89.1 | 68.9 | 65.5 | 62.2 | 85.9 | 91.7 | 78.5 | 76.3 | 84.2 | 72.3 | 59.2 | 58.9 | viability, T/C [8]: 74.2%; viability, T/C [9]: 76.6%; viability, T/C [10]: 70.2%; viability, T/C [13]: 66%; viability, T/C [14]: 73.8%; viability, T/C [15]: 74.1%; viability, T/C [16]: 66.3%; viability, T/C [19]: 61.3%; viability, T/C [20]: 75.8%; viability, T/C [21]: 59.6%; viability, T/C [22]: 72.3%; viability, T/C [25]: 71.7%; viability, T/C [26]: 67.4%; viability, T/C [27]: 62.3%; viability, T/C [28]: 62.3%
